Measurements from patent US7635693B2, “Methods for preventing and treating cancer using N-thiolated β-lactam compounds and analogs thereof” (University of South Florida, priority 2002, dated 2009).
Several values for one entry are separate records, joined by “and”; a condition that tells them apart may be missing. Equal values may be shown once. Read-outs that look alike come from different tables or passages of the source.

What was measured:
Jurkat T cells [1] = format: cell-based, human; details: for non-viable cell population / cell death (trypan blue): 50 μM
Method: The trypan blue exclusion assay was performed by injecting 10 μl of cell suspension containing 0.2% trypan blue dye into a hemoicytometer and counting. Numbers of cells that absorbed the dye and those that excluded the dye are counted, from which the percentage of non-viable cell number to total cell number is calculated.

caspase-3 [2] = test: Cell-free caspase-3 activity in lysates of VP-16-treated Jurkat T cells, inhibitor present; format: biochemical, human; details: lysates of Jurkat T cells treated with 50 μM VP-16 for 5 hours
Method: (§1) Briefly, a prepared protein extract (20 μg) is incubated in a buffer containing 50 mM Tris/pH 8.0 along with each respective caspase substrate at 20 μM in a 96 well plate. The reaction mixture is incubated at 37° C. for 2 h.

caspase-8 = test: Cell-free caspase-8 activity in lysates of VP-16-treated Jurkat T cells, inhibitor present; format: biochemical, human; details: lysates of Jurkat T cells treated with 50 μM VP-16 for 5 hours
Method: as §1

Jurkat T cells [3] = test: TUNEL assay (DNA strand breaks), Jurkat T cells; format: cell-based, human; details: for TUNEL-positive cell population (DNA damage): 4 hour
Method: Terminal deoxynucleotidyl transferase-mediated UTP nick end labeling (TUNEL) was performed to determine the extent of DNA strand breaks. TUNEL assay was performed with an APO-Direct kit per the manufacturer's instructions. In brief, cells are fixed in 1% paraformaldehyde and ethanol at […] overnight and then permeabilized with Proteinase K. After permeabilization, Fluorescein conjugated dNTP's and TdT enzyme (Terminal Deoxynucleotidyl Transferase) are added to the cells. The TdT enzyme is then able to label free ends of DNA with Fluorescein conjugated dNTPs that could then be detected by flow cytometry.
The assay was performed following manufacturer's instruction using the APO-Direct kit. In brief, the harvested cells were fixed in 1% paraformaldehyde for 15 min on ice, washed with PBS, and then fixed again in 70% ethanol at −20° C. overnight. The cells were then incubated in DNA labeling solution (containing terminal deoxynucleotidyl transferase (TdT) enzyme, fluorescein-conjugated dUTP and reaction buffer) for 90 min at 37° C. After removing the DNA labeling solution by rinsing cells with Rinsing Buffer, the cells were incubated with the Propidium Iodide/RNase A solution, incubated for 30 min at room temperature in the dark, and then analyzed by flow cytometry within 3 h of staining.

caspase-9 = test: Cell-free caspase-9 activity in lysates of VP-16-treated Jurkat T cells, inhibitor present; format: biochemical, human; details: lysates of Jurkat T cells treated with 50 μM VP-16 for 5 hours
Method: as §1

p38 MAP kinase = test: p38 phosphorylation, Western blot, Jurkat T cells; format: cell-based, human; details: for normalized increase in phosphorylation of p38 over control: FIG. 8D
Excerpt: It has been shown that multiple stimuli including DNA damaging agents induce apoptosis via activation of p38 MAP kinase (Kummer J L, et al., 1997, Apoptosis induced by withdrawal of trophic factors is mediated by p38 mitogen-activated protein kinase. J. Biol Chem 272:20490-4; Sanchez-Prieto R, et al., 2000, A role for the p38 mitogen-acitvated protein kinase pathway in the transcriptional activation of p53 on genotoxic stress by chemotherapeutic agents. Cancer Res 60:2464-72). […] The levels of Tyr-182 phosphorylated p38 protein were increased by 3-fold at 2 h and reached its maximum (˜9-fold) by 6 h (FIG. 8A). In has been shown that dual phosphorylation of p38 on Tyr-182 and Thr-180 activates this kinase (Raingeaud J, et al., 1995, Pro-inflammatory cytokines and environmental stress cause p38 mitogen-activated protein kinase activation by dual phosphorylation on tyrosine and threonine. J Biol Chem 270:7420-6). […] Therefore, lactam 1-induced DNA damage triggered activation of p38 before S population accumulation and apoptosis induction.

caspase-3 [4] = test: Cell-free caspase-3 activity assay on extracts of treated Jurkat T cells; format: cell-based, human; details: 50 μM, 8 hours
Method: as §1
A library of β-lactam analogs was screened for their ability to induce apoptosis. The screening procedure is accomplished by treating human Jurkat T cells with each compound at 50 μM for 8 hours. This is followed by preparation of cell lysates and measurement of apoptosis-specific caspase-3 activation (by cell-free caspase-3 activity assay) and PARP cleavage (by Western blotting).

PARP [5] = test: PARP cleavage, Western blot, Jurkat T cells; format: cell-based, human; details: 50 μM, 8 hours
Excerpt: A library of β-lactam analogs was screened for their ability to induce apoptosis. […] This is followed by preparation of cell lysates and measurement of apoptosis-specific caspase-3 activation (by cell-free caspase-3 activity assay) and PARP cleavage (by Western blotting).

Jurkat T cells [6] = test: Flow cytometry cell cycle distribution and sub-G1 population, Jurkat T cells; format: cell-based, human; details: 50 μM; for increase in S phase population / sub-G1 apoptotic population: 5 hours
Method: Cell Death Differ 5:1062-75. At each time point, cells are harvested, counted, and washed twice with PBS. Cells (5×10^6) are suspended in 0.5 ml PBS, fixed in 5 ml of 70% ethanol for at least 2 h at −20° C., centrifuged, resuspended again in 1 ml of propidium iodide staining solution (50 μg propidium iodide, 100 units RNase A and 1 mg glucose per ml PBS), and incubated at room temperature for 30 minutes. The cells are then analyzed with FACScan (Becton Dickinson Immunocytometry, CA), ModFit LT and WinMDI V.2.8 cell cycle analysis software (Verity Software; Topsham, Me.). The cell cycle distribution is shown as the percentage of cells containing G1, S, G2, and M DNA judged by propidium iodide staining. The apoptotic population is determined as the percentage of cells with sub-G1 (<G1) DNA content.

PARP [7] = details: YT cells, 2, 10, 25, and 50 μM, 12 h
Method: Human Jurkat T cells and human prostate cancer LNCaP cells were cultured in RPMI 1640 medium, supplemented with 10% fetal bovine serum, 100 units/ml penicillin, and 100 μg/ml streptomycin. Human YT cells were cultured in RPMI 1640 medium supplemented with 1 mM MEM sodium pyruvate solution, 0.1 mM MEM non-essential amino acids solution, 10% fetal bovine serum, 100 units/ml penicillin, and 100 μg/ml streptomycin. All cell lines were maintained at 37° C. in a humidified incubator with an atmosphere of 5% CO2. […] Briefly, cells were harvested, washed with PBS and homogenized in a lysis buffer (50 mM Tris-HCl, pH 8.0, 5 mM EDTA, 150 mM NaCl, 0.5% NP-40, 0.5 mM phenylmethylsulfonyl fluoride, and 0.5 mM dithiothreitol) for 30 min at 4° C. Afterwards, the lysates were centrifuged at 12000×g for 15 min at 4° C. and the supernatants collected as whole-cell extracts. Equal amounts of protein extract (60 μg) were resolved by SDS-polyacrylamide gel electrophoresis and transferred to a nitrocellulose membrane (Schleicher & Schuell, Keene, N. H.) using a Semi-Dry Transfer System (Bio-Rad, Hercules, Calif.). The enhanced chemiluminescence Western blot analysis was then performed using specific antibodies to the proteins of interest.

caspase-3 [8] = details: LNCaP cells, 48 h
Method: To measure cell-free caspase-3 activity, whole cell extracts (20-30 μg) from untreated or treated LNCaP cells were incubated with 20 μM of the fluorogenic substrate caspase-3/caspase-7 (Ac-DEVD-AMC) for 30 min at 37° C. in 100 μl of assay buffer (50 mM Tris, pH 8.0).

LNCaP cells = LNCaP cells in soft agar, 50 μM, 21 day-incubation
Method: The soft agar assay was performed as described previously (Menter D G, Sabichi A L, Lippman S M., 2000, Selenium effects on prostate cell growth. Cancer Epidemiol Biomarkers Prev 9:1171-82) with a few modifications. In brief, in a six-well plate, a bottom feeder layer (0.6% agar) was prepared with DMEM media containing 10% fetal bovine serum, 100 units/ml penicillin, and 100 μg/ml streptomycin. […] Plates were incubated at 37° C. in 5% CO2 in a humidified incubator for three weeks. MTT (1 mg/ml) was added to each well and incubated overnight to allow complete formation of purple formazan crystals. The plates were then scanned and photographed, and the number of colonies was quantified by Quantity one v.4.0.3 software (Bio-Rad, Hercules, Calif.).

NK cells (YT line) = details: YT cells, 2, 10, 25, and 50 μM, 24 h
Method: The trypan blue dye exclusion assay was performed by mixing 20 μl of cell suspension with 20 μl of 0.4% trypan blue dye before injecting into a hemocytometer and counting. The number of cells that absorbed the dye and those that exclude the dye were counted, from which the percentage of nonviable cell number to total cell number was calculated.

Jurkat T cells [9] = test: Morphological changes of treated Jurkat T cells; format: cell-based, human; details: 50 μM, 8 hours

With `COC1C(=O)N(SC)C1c1ccccc1I` (racemic) [lactam 46] the “non-viable cell population / cell death (trypan blue)” value (Jurkat T cells [1]; 24 h) was 60%.

For `CC(C)(C)OC(=O)NC(CC(=O)O)C(=O)CF` [Boc-D-FMK, N-tert-butoxycarbonyl-Asp-fluoromethyl ketone], the “direct inhibition of caspase-3 activity” value (caspase-3 [2]) was “completely blocked”, the “direct inhibition of caspase-8 activity” value (caspase-8) was “completely blocked” and the “TUNEL positivity on co-treatment with lactam 1” value (Jurkat T cells [3]; 4 hours, 50 μM lactam 1 plus PD 169316 at 30 μM or Boc-D-FMK at 50 μM) was 97%. The “direct inhibition of caspase-9 activity” value (caspase-9) was “completely blocked” and the “effect on lactam 1-induced p38 phosphorylation” value (p38 MAP kinase; 4 hours, 50 μM lactam 1 plus inhibitor at 50 μM) was “not affected”.

In the case of `CCSN1C(=O)C(OC)C1c1ccccc1Cl` (racemic) [lactam 3], the “decrease of caspase-3 activity relative to lactam 1” value (caspase-3 [4]) is reported as about 50%, the “TUNEL-positive cell population (DNA damage)” value (shortened to “TUNEL-positive cell population”) (Jurkat T cells [3]; 50 μM) is reported as 16% and the “normalized increase in phosphorylation of p38 over control” value (p38 MAP kinase) is reported as 3.2 fold. For the same compound, the “decrease of PARP cleavage relative to lactam 1” value (PARP [5]) was about 50%, the “increase in S phase population” value (Jurkat T cells [6]) was 15% and the sub-G1 apoptotic population (Jurkat T cells [6]) was 10%.

`CCCCSN1C(=O)C(OC)C1c1ccccc1Cl` (racemic) [lactam 4] was tested, and the “decrease of caspase-3 activity relative to lactam 1” value (caspase-3 [4]) was about 65%, the “TUNEL-positive cell population” value (Jurkat T cells [3]; 50 μM) was 3% and the “normalized increase in phosphorylation of p38 over control” value (p38 MAP kinase) was 2.6 fold. For the same compound, the “decrease of PARP cleavage relative to lactam 1” value (PARP [5]) was about 65%, the “increase in S phase population” value (Jurkat T cells [6]) was 8% and the sub-G1 apoptotic population (Jurkat T cells [6]) was 2%.

For `COC1C(=O)N(SC)C1c1ccc(Cl)cc1` (racemic) [lactam 6], the “decrease of caspase-3 activity relative to lactam 1” value (caspase-3 [4]) was about 20% and the “decrease of PARP cleavage relative to lactam 1” value (PARP [5]) was about 20%.

In the case of `COC1C(=O)N(SC)C1c1ccccc1` (racemic) [lactam 48], the “non-viable cell population / cell death (trypan blue)” value (Jurkat T cells [1]; 24 h) is reported as about 25%.

For `COC1C(=O)N(SC)C1c1ccccc1F` (racemic) [lactam 49], the “non-viable cell population / cell death (trypan blue)” value (Jurkat T cells [1]; 24 h) was about 35%.

In the case of `COC1C(=O)N(SC)C1c1ccccc1[N+](=O)[O-]` (racemic) [lactam 47], the PARP cleavage (PARP [7]) is reported as “nor PARP cleavage”, the “increase in caspase-3 activity over control” value (from here on “increase in caspase-3 activity”) (caspase-3 [8]; 2 μM) is reported as 2 fold and the “increase in caspase-3 activity” value (caspase-3 [8]; 10 μM) is reported as 2.5 fold. The “increase in caspase-3 activity” value (caspase-3 [8]; 25 μM) was 4.2 fold, the “inhibition of colony formation” value (LNCaP cells) was about 100% and the “cell death (trypan blue)” value (Jurkat T cells [1]; 10 μM, 24 h) was 25%. For the same compound, the “cell death (trypan blue)” value (Jurkat T cells [1]; 25 μM, 3 h) was 15%, the trypan blue-positive cells (Jurkat T cells [1]; 25 μM, 6 h) was 24% and the “cell death (trypan blue)” value (Jurkat T cells [1]; 25 μM, 24 h) was 45%. For the same compound, the “non-viable cell population / cell death (trypan blue)” value (Jurkat T cells [1]; 24 h) was ~94% and 80-90%, the “potency relative to lactam 1” value (Jurkat T cells [1]; 24 h, trypan blue dose-response) was about 2 fold and the TUNEL-positive cells (Jurkat T cells [3]; 50 μM, 12-24 h) was 82-90%. The “cells with DNA strand breaks (TUNEL)” value (Jurkat T cells [3]; 50 μM, 3 h) was about 70%, the sub-G1 population (Jurkat T cells [6]; 12 h) was 34% and the sub-G1 population (Jurkat T cells [6]; 24 h) was 57%. For the same compound, the “cell death (trypan blue)” value (NK cells (YT line)) was “neither cell death”.

With `COC1C(=O)N(SCc2ccccc2)C1c1ccccc1Cl` (racemic) [lactam 7] the “decrease of caspase-3 activity relative to lactam 1” value (caspase-3 [4]) was about 70% and the “decrease of PARP cleavage relative to lactam 1” value (PARP [5]) was about 70%.

With `COC1C(=O)N(SC)C1c1ccccc1Br` (racemic) [lactam 23] the “non-viable cell population / cell death (trypan blue)” value (Jurkat T cells [1]; 24 h) was 55%.

For `COC1C(=O)NC1c1ccccc1Cl` (racemic) [lactam 2], the caspase-3 activation (caspase-3 [4]) was “induces neither caspase-3 activation nor PARP cleavage”, the “TUNEL-positive cell population” value (Jurkat T cells [3]; 50 μM) was “did not cause any DNA damage” and the morphological changes (Jurkat T cells [9]) was “no morphological changes”. For the same compound, the PARP cleavage (PARP [5]) was “induces neither caspase-3 activation nor PARP cleavage”, the “increase in S phase population” value (Jurkat T cells [6]) was “did not induce accumulation of either S or sub-G1 populations” and the sub-G1 apoptotic population (Jurkat T cells [6]) was “did not induce accumulation of either S or sub-G1 populations”.

With `O=C1CC2(CCCCC2)CN1` [lactam 5] the “decrease of caspase-3 activity relative to lactam 1” value (caspase-3 [4]) was about 20% and the “decrease of PARP cleavage relative to lactam 1” value (PARP [5]) was about 20%.
